From a melting point compilation (Tetko et al.; mined from patent text by program, amines drawn as free bases though some values may be those of a salt)

Compound | melting point
CSC(SC)(SC)C(O)c1ccc(-n2cccc2)cc1 (centres undefined) | 101 to 103 °C
COC(=O)C(Oc1cc(OCc2ccsc2)ccc1C#N)c1ccccc1C(F)(F)F (racemic) | 104 to 108 °C
N#Cc1cc(I)ccc1N | 85 to 86 °C
FC(F)c1nc2ccccc2n1-c1nc(Nc2ccccc2)nc(N2CCOCC2)n1 | 171 to 174 °C
CC(C)(C)c1ccc(C(=O)CCCN2CCC(C3(O)c4ccccc4CCc4ccccc43)CC2)cc1 | 132 to 134 °C
COc1cc(COc2nn(-c3ccccc3)cc2C=O)ccc1OCc1nc(-c2ccccc2)cn1C | 126 to 127 °C
COC(c1cc(C)c(OCC(=O)O)c(C)c1)(C(F)(F)F)C(F)(F)F | 105 to 108 °C
COc1cc(N2CCC(N3CCN(C)CC3)CC2)ccc1Nc1ncc2ccc(-c3cccc(S(=O)(=O)NC(C)(C)C)c3)n2n1 | 214 to 216 °C
CC(C)(CO)CNC(=O)c1ccc2c(c1)C(=NNc1ccc(S(N)(=O)=O)cc1)C(=O)N2 | > 230 °C
CC(C)c1nc(COC(N)=O)n(C)c1Sc1cc(Cl)cc(Cl)c1 | 146 to 148 °C
CNC(=O)/C(=N/OC)c1ccccc1Oc1ccc(C)c(C)c1 | 98 to 100 °C
CNC(=O)ON=C1N=C(c2ccc(Cl)cc2)C(C)(C)S1 | 147 to 149 °C
Cc1csc(C(O)(c2nccs2)C(F)(F)F)n1 (centres undefined) | 89 to 90 °C
CCOc1nn(-c2ccc(C(F)(F)F)cn2)cc1CCOc1cccc(OC(C)(C)C(=O)O)c1 | 89 to 90 °C
CC(C)Cn1cnc2cnc3ccc(OCc4ccccc4)cc3c21 | 129 to 133 °C
O=C(C(=O)c1ccc(Oc2ccc(Br)cc2)cc1)c1ccccc1 | 85 to 86 °C
O=C(CNC(=O)c1ccncc1)NC1CCN(CCc2c[nH]c3ccccc23)CC1 | 211 to 215 °C
Fc1ccc(C2CN(C(c3ccccc3)c3ccccc3)C2)cc1 | 65 to 66 °C
Cc1cc(C(=O)O)ncc1C(c1c(F)ccc(F)c1F)S(=O)(=O)CCC(F)(F)F (centres undefined) | 85 to 87 °C
N#Cc1ccc(OCCNC(=O)C2Cc3ccccc3N2S(=O)(=O)c2ccc(-c3cccc(C(F)(F)F)c3)cc2)cc1 (centres undefined) | 70 to 80 °C
CN(C(=O)CN(O)C(N)=O)c1cccc(Oc2ccccc2)c1 | 110 to 112 °C

Compound | melting point
N#Cc1cccc(-c2ccc(O)c(C=O)c2)c1 | 139 to 140 °C
O=C(c1ccc(Cl)cc1)N(c1ccccc1)c1ccc(OCc2ccccc2)cc1 | 132 to 136 °C
CCCNC(=O)c1ccc2c(c1)N(C(C)COS(C)(=O)=O)c1ccccc1S2 (racemic) | 138 °C
CC(=O)c1ccc(S(=O)(=O)Nc2ccccn2)cc1 | 198 to 199 °C
CCOC(=O)[C@H](O)[C@@H](NC(=O)OC(C)(C)C)c1ccccc1 | 102 °C
CC1(C)OC(=O)C(=[N+]=[N-])C(=O)O1 | 93 to 94 °C
O=C(O)CN(CCc1ccccc1)C(=O)CCc1nc2c(F)c(F)cc(F)c2s1 | 139 to 140 °C
CCn1cc(-c2c(-c3ccc(F)cc3)nn3ccncc23)ccc1=O | 165 to 166 °C
CC(=O)OC1=C(c2ccccc2)C(=O)N(C(C)(C)c2ccccc2)C1 | 149 to 150 °C
COC(=O)/C(O)=C1\CCc2cc(OC)ccc2C1=O | 77.3 to 77.8 °C
Nc1cc(-n2ccc(=O)cc2)ccc1[N+](=O)[O-] | 298 to 303 °C
NC(=O)c1cnn2cccc2c1NC1CCC(O)CC1 (centres undefined) | 192 °C
Cc1ccc(-c2nc(CO[C@H]3CCC[C@@H](C(=O)N[C@H](C(=O)O)C(C)C)C3)c(C)o2)cc1 | 195 to 196 °C
COc1cccc(C=C2OC(=O)c3ccccc32)c1 | 119 to 123 °C
COC(=O)c1sccc1NC(=O)CC#N | 146 °C
COC(=O)CCNc1ccccc1CNC(=O)C1Cc2ccccc2N1S(=O)(=O)c1ccc(I)cc1 (centres undefined) | 67 to 75 °C
O=C(OCc1ccccc1)N1CCC2(CC1)CC(=O)N(O)C2=O | 131 to 132 °C
CCCCc1nc(Sc2ccccc2)c(CO)[nH]1 | 45 °C
O=c1[nH]c(-c2ccccn2)nc(C(F)(F)F)c1I | 186 to 187 °C
CCOC(=O)C1=C[C@@H](OC(CC)CC)[C@@H](NC(C)=O)[C@H](N=[N+]=[N-])[C@@H]1O | 112 to 115 °C
CC(=O)NC1CCc2c([nH]c3ccc(F)cc23)C1 (centres undefined) | 209 to 210 °C

Compound | melting point
COc1ccc(S(=O)(=O)Nc2ccc(-c3ccccc3)cc2)cc1OC | 171 to 173 °C
COC(=O)c1cccc(OC)c1OCCC#N | 74 to 75 °C
Cc1nnc(-c2ccc(F)cc2)n2nc(OCc3ncnn3C)c(-c3ccsc3)c12 | 171 to 177 °C
O=C(c1ccccc1)c1ccc(OC(=O)C2CCCCC2)cc1 | 111 to 112 °C
CCOC(=O)C(=NOC)c1csc(NC(=O)CCl)n1 | 81 to 82 °C
C#Cc1cccc(Oc2ccc3c(c2)C(=O)N(c2cccc(C#C)c2)C3=O)c1 | 150 to 160 °C
CCCCCCCCC=CCCCCCCCCOCC(CN(C)C)OCCCCCCCCC=CCCCCCCCC (centres undefined) | 35 to 38 °C
CC(=O)Oc1ccc(C)cc1[C@H](CCN(C(C)C)C(C)C)c1ccccc1 | 126 to 130 °C
COc1ccc2cc([C@H](C)C(=O)OC(C)C(=O)NCC(=O)O)ccc2c1 (some centres undefined) | 174 to 175 °C
CCOC(=O)C(NC(=O)Cc1ccc(N)cn1)C(=O)OCC | 89 to 90 °C
CCCCCC/C(=C\c1ccccc1)C1O[C@@H](C(=O)OC)[C@H](C(=O)OC)O1 | 49 to 50 °C
Fc1ccc2c(c1)C1OC1c1ccccc1C2 (centres undefined) | 239 °C
COc1cccc(OC)c1C(=O)Nc1nnc(C2SCCCS2)s1 | 200 to 208 °C
CC(C)(C)C1CCC(C2=C(O)C(=O)c3ccccc3C2=O)CC1 (centres undefined) | 123 to 126 °C
CC(C)c1cccc(C(C)C)c1NC(=O)Nc1ccccc1CCc1cc(C(C)(C)C)c(O)c(C(C)(C)C)c1 | 209 to 210 °C
COc1ccc(N2C(=O)O[C@H](COC(=O)c3ccc([N+](=O)[O-])cc3)[C@@H]2C)cc1 | 138 to 140 °C
CCCCCCC(=N)NC(=S)Nc1cc(C(F)(F)F)ccc1Cl | 88 to 90 °C
CCCCNS(=O)(=O)c1ccc2[nH]c(=O)c(=O)[nH]c2c1 | 257 to 262 °C
CC(C)N1CC([N+](=O)[O-])=C(NCC(=O)O)C1=O | 180 to 185 °C

The next lines start with the values.

melting point | Compound
204 to 207 °C | CC(=O)Oc1c(C)c(C)c2c(c1C)C(=O)CC(O)(COc1ccc([N+](=O)[O-])cc1)O2 (centres undefined)
131 to 132 °C | Fc1ccc(-c2ncn(C3CCNCC3)c2-c2ccnc(Oc3ccc4c(c3)OCO4)n2)cc1
248 to 250 °C | Cc1ccc(N2CCN(Cc3cnc(N)nc3N)CC2)cc1
188 to 190 °C | COc1cc(C(=O)O)ccc1OCc1cccc(OCc2ccc3ccccc3n2)c1
> 300 °C | O=C(c1ccccc1)c1ccc2nc3[nH]c(=O)[nH]c3cc2c1
110 °C | Cc1ccccc1CNC(=S)c1ccc2c(c1)N(C(C)CN1CCCC1)c1ccccc1S2 (racemic)
145 to 146 °C | CNC(=Nc1cc(Cl)ccc1N1CCOCC1)NC
135 to 136 °C | CC(=O)NCCCC(=O)N1CCCC(=O)c2ccc(Cl)cc2CCC1=O
122 to 124 °C | O=C(Nc1c(F)cc(F)cc1F)N(Cc1cc2ccccc2c2ccccc12)C1CCCCC1
202 to 205 °C | CC1(c2ccc([N+](=O)[O-])cc2)Cc2cc(OCC(=O)O)c(Cl)c(Cl)c2C1=O (centres undefined)
186 to 188 °C | Cc1noc(NS(=O)(=O)c2ccc(-c3ccccn3)s2)c1Br
75 to 77 °C | CC(=O)OCCCn1nc(-c2cc(C(C)(C)C)c(O)c(C(C)(C)C)c2)c2cccnc21
242 to 245 °C | CS(=O)(=O)c1ccc(Nc2nccc(N3CCCc4c(O)cccc43)n2)cc1
> 300 °C | O=C(NCCc1ccn(-c2cc3nc(C(=O)O)c(=O)[nH]c3cc2F)c1)Nc1ccc(C(=O)O)cc1
228 to 230 °C | CCCCc1nc2c(N)nc3cc(-c4cccnc4)ccc3c2n1CCNC(=O)C(C)C
195 to 197 °C | CN1CC(c2ccc(Cl)cc2)=NNC1=O
> 220 °C | O=C(O)c1ccccc1Nc1ccc(-c2ccc(Cl)c(Cl)c2)cc1
278 to 279 °C | Cc1sc(N2CCOCC2)nc1/C=C/c1cn(-c2ccccc2)nc1O
215 to 216 °C | Cc1nccn1-c1nc(-c2ccc(Cl)cc2)c(CCC(N)=O)o1

melting point | Compound
153 to 154 °C | COc1ccc2c(=O)c(-c3ccc(OCC4CO4)cc3)coc2c1 (centres undefined)
166 to 168 °C | CC1(C)CC(=O)c2c(Br)cn(-c3ccccn3)c2C1
175 to 178 °C | CCc1nc2c(N)nc3ccccc3c2o1
185 °C | Cc1nc(Br)c(Br)n1Cc1cc2c(cc1Cl)OCO2
185 to 205 °C | CC(=O)c1cccc2cc3c(C(C)=O)cccc3cc12
89 to 91 °C | CSC1Oc2cccc3cccc(c23)C1=O (centres undefined)
205 to 208 °C | Cc1ncc(CN2CCc3cc(-c4ccc(Cl)cc4)ccc3C2)c(N)n1
222 °C | N#Cc1ncn2c(C(F)(F)F)cc(-c3cccnc3)nc12
172 to 173 °C | CN1C(=O)C=C[C@]2(C)c3ccc(-c4cccc5ccccc45)cc3CC[C@@H]12
149 to 150 °C | Cc1cc(C#CCc2ccc3c(c2)C(C)(C)CCC3(C)C)ccc1C(=O)O
120 to 121 °C | COc1cccc(Sc2ccnc(Nc3cccc(CN)c3)n2)c1
140 to 141 °C | COCc1c2c(n(Cc3ccccc3)c1-c1ccccc1)C(C)CN(Cc1ccccc1)C2 (centres undefined)
157 to 158 °C | CCOC(=O)c1cc2cccc(NS(C)(=O)=O)c2[nH]1
142 to 143 °C | CC(C)(C)c1ccc(CCC(O)CC2CCCC2)cc1NC(=O)CC1c2ccccc2Oc2ccccc21 (centres undefined)
128 to 129 °C | CCCCNc1cc(-c2c(-c3cccc(C)c3)nc3cccnn23)ccn1
167 to 168 °C | COc1cc(C(=O)N2CCNC(C(=O)N(C)C)C2)cc(OC)c1OC (centres undefined)
130 to 131 °C | Cn1cc(Oc2ccccc2)c(=O)c(-c2ccc(Cl)c(C(F)(F)F)c2)c1
125 to 127 °C | CC1Cc2c(N=C3OC(=O)C4=C3CCCC4)ccc(Cl)c2O1 (centres undefined)
197 to 199 °C | CCc1nnc2ccc(-c3ccc(Cl)cc3)nn12
